Key:
Type in all cases: cell-based
[1] = tested on: MiaPaCa-2 pancreatic cancer cell line; experiment: [3H]-thymidine incorporation (DNA synthesis), MiaPaCa-2; parameters: effect on proliferation (thymidine incorporation): dose or concentration left out as unconfirmed
Description: (§1) Cell culture. The following pancreatic cancer cell lines were used: MiaPaCa-2 and PANC-1 (poorly-differentiated); Capan-1 and Capan-2 (well-differentiated); and HPAF and AsPC-1 (pleomorphic). These were purchased from American Type Culture Collection (Rockville, Md.). PANC-1 and MiaPaCa-2 were grown in DMEM media; HPAF and AsPC-1 were grown in MEM media; and Capan-1 and Capan-2 were grown in-McCoy's media. Media were supplemented with 10% FBS, and the cells were grown as monolayers in a humidified atmosphere of […] and 5% CO2 at 37° C. The cells were regularly seeded into 75 cm^2 flask with media changed every other day. For experiments, cells were grown to 80% confluence, digested with trypsin-EDTA, and plated either in 12 or 24-well plates at a concentration of 50,000/ml, as appropriate.
(§2) DNA synthesis by [^3H]-Thymidine incorporation. Cells were plated in 12 or 24-well plates. After reaching 70% confluence, they were incubated in serum-free media for 24 hours, which was then replaced with fresh serum-free media with or without the appropriate concentration of leukotriene B4 receptor antagonist LY293111 (62.5-1000 nM), LTB4 (100-400 nM), or both. After the appropriate period of culture, cellular DNA synthesis was assayed by adding 0.5 μCi/well of [^3H]-methyl-thymidine and incubating for another 2 hours. Then, the cells were washed twice with PBS, fixed with 10% trichloroacetic acid (“TCA”) for 30 minutes, and solubilized by adding 0.4 M NaOH to each well. Radioactivity, indicating incorporation of ^3H-thymidine into DNA, was measured by adding a scintillation cocktail and counting on a scintillation counter (LKB RackBeta, Wallac, Turku, Finland)

[2] = tested on: HPAF pancreatic cancer cell line; experiment: [3H]-thymidine incorporation (DNA synthesis), HPAF; parameters: effect on proliferation (thymidine incorporation): dose or concentration left out as unconfirmed
Description: as §1, §2

[3] = tested on: Bcl-2 in MCF-7 breast cancer cells; experiment: Bcl-2 expression by western blotting; conditions: MCF-7, LTB4 100 nM

Row | SMILES | effect on proliferation (thymidine incorporation) ([1]; MiaPaCa-2, 48 hours, likely a toxic effect, P=0.2316) | effect on proliferation (thymidine incorporation) ([2]; HPAF, 48 hours, likely a toxic effect, P=0.2217) | increase of proliferation compared with control ([1]; MiaPaCa-2 (FIG. 6A), 100 nM LTB4, 24 hours) [%] | thymidine incorporation compared with control ([1]; MiaPaCa-2, LTB4 100 nM for 72 hours) | effect on proliferation (thymidine incorporation) ([1]; MiaPaCa-2, concentration and time-dependent, P<0.0001) | increase of proliferation compared with control ([2]; HPAF (FIG. 6B), 100 nM LTB4, 24 hours) [%] | thymidine incorporation compared with control ([2]; HPAF, LTB4 100 nM for 72 hours) | effect on proliferation (thymidine incorporation) ([2]; HPAF, concentration and time-dependent, P<0.0001) | Bcl-2 expression (western blot) [3]
1 | CCCc1c(OCCCCc2nnn[nH]2)ccc(C(C)=O)c1O [LY171883, 1-(2-hydroxy-3-propyl-4-(4-(1H-tetrazol-5-yl)butoxy)phenyl)ethanone, reference compound] | only affected proliferation at the highest concentration | only affected proliferation at the highest concentration |  |  |  |  |  |  | 
2 | CCCCC/C=C\C[C@@H](O)/C=C/C=C/C=C\[C@@H](O)CCCC(=O)O [LTB4, Leukotriene B4, reference compound] |  |  | 25 | more than doubled | stimulated the proliferation | 25 | more than doubled | stimulated the proliferation | increase expression

Source: US20040053962A1, “Methods for inhibiting proliferation and inducing apoptosis in cancer cells” (priority 2003, published 2004)
